Experimental findings from patent US9834521B2, “Choline kinase inhibitors” (ARIAD Pharmaceuticals, Inc., priority 2013, dated 2017) are described below.

One assay addresses T1, ChoKα protein (Homo sapiens, UniProt P35790).
T1 construct: made in house
The assay can be described thus: Binding affinity by surface plasmon resonance (SensiQ Pioneer, FastStep). The conditions noted are these: SPR, 1:1 binding model, upper concentration 500 nM; read-out: Kd. The procedure: KD may be measured using surface plasmon resonance (BIAcore®) technology, see, e.g., Panayotou et al, Mol. Cell. […] ChoKα protein was immobilized by standard amine coupling methods on a COOH5 sensor chip installed in a SensiQ Pioneer system. Sensograms were measured using the FastStep™ screen method with an upper concentration of 500 nM. Kinetics and affinity were obtained from fits using a 1:1 binding model.
On the technique in general: In SPR one partner is held on a chip, and binding of the other changes the refractive index at the surface.

Assay [1] has as its target T2, truncated form of human Choline kinase α1 that includes residues 75-457 (Homo sapiens, UniProt P35790).
T2 construct: made in house
In words: Kinase Assay, coupled (ATP regeneration) LDH/PK assay, NADH absorbance. Format: biochemical. The procedure:
Absorbance of NADH (340 nm) was measured over 30 min using a SpectraMax M5 (Molecular Devices). Initial reaction velocity (ΔA340/Δt) was calculated and plotted as a function of inhibitor concentration in a 2-fold dilution series. IC50 values were obtained by fitting the relative velocities to a dose-response model.

[2] abbreviates: Examples not designated with an asterisk, footnote prints version 1 of the Kinase Assay, read-out: IC50.
Where [3] appears, read: Examples designated with an asterisk (*): version 1 of the Kinase Assay, 200 nM enzyme, read-out: IC50.

SMILES strings stand for the structures. Like-named read-outs stand apart in the source and are kept apart here.

T2 sequence (P35790 75-457): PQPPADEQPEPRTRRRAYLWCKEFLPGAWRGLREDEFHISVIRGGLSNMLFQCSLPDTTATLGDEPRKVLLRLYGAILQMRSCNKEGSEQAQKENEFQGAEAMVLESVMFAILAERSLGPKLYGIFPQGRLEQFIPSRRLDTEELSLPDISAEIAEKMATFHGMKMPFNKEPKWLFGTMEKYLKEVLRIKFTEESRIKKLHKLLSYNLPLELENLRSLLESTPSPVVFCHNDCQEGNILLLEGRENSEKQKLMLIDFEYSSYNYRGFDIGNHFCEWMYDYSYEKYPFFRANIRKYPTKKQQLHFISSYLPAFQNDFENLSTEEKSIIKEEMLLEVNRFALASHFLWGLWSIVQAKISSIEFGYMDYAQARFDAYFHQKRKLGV
T1 sequence (P35790 75-457): as above

By Kd is commonly meant the concentration at which binding is half-saturated. As usually defined, the IC50 is the concentration that gives 50% inhibition. On to `CN1CCCN(Cc2ccc(-c3ccc(CN4CCOCC4)cc3)c(C#N)c2)CC1` [Example 9, 4-((4-methyl-1,4-diazepan-1-yl)methyl)-4′-(morpholinomethyl)-[1,1′-biphenyl]-2-carbonitrile], for which the Kd on ChoKα protein is under 0.1 µM. The IC50 in assay [1] (setting [2]) is under 0.2 µM.

Consider `CN1CCCN(Cc2ccc(-c3ccc(C(=O)N4CCCN(C)CC4)cc3N)c(C#N)c2)CC1` [Example 64, 2′-amino-4-((4-methyl-1,4-diazepan-1-yl)methyl)-4′-(4-methyl-1,4-diazepane-1-carbonyl)-[1,1-biphenyl]-2-carbonitrile], for which the Kd at ChoKα protein was under 60 µM. The IC50 in assay [1] (setting [2]) was under 0.2 µM. Turning to `CN1CCCN(Cc2ccc(CNc3ccc(N4CCN(C)CC4)cc3)cc2)CC1` [Example 153, N-(4-((4-methyl-1,4-diazepan-1-yl)methyl)benzyl)-4-(4-methylpiperazin-1-yl)aniline], the equilibrium dissociation constant (Kd) on ChoKα protein is under 60 µM. Further, the IC50 in assay [1] (setting [3]) was under 0.2 µM. As to `CN1CCCN(Cc2ccc(-c3ccc(C(=O)N4CCC(CO)C4)cc3)c(C#N)c2)CC1` (centres unmarked) [Example 22, 4′-(3-(hydroxymethyl)pyrrolidine-1-carbonyl)-4-((4-methyl-1,4-diazepan-1-yl)methyl)-[1,1′-biphenyl]-2-carbonitrile], the Kd on ChoKα protein is under 0.2 µM. In addition, the IC50 in assay [1] (setting [2]) is under 0.2 µM. As to `CN1CCCN(Cc2ccc(-c3ccc(S(=O)(=O)N4CCN(C)CC4)cc3)c(C#N)c2)CC1` [Example 84, 4-((4-methyl-1,4-diazepan-1-yl)methyl)-4′-((4-methylpiperazin-1-yl)sulfonyl)-[1,1′-biphenyl]-2-carbonitrile], the Kd at ChoKα protein is under 0.1 µM. Besides, in assay [1] (setting [2]), the IC50 was under 0.1 µM. For the compound `CN1CCCN(Cc2ccc(-c3ccc(CN(C)CCO)cc3)c(C#N)c2)CC1` [Example 8, 4′-(((2-hydroxyethyl)(methyl)amino)methyl)-4-((4-methyl-1,4-diazepan-1-yl)methyl)-[1,1′-biphenyl]-2-carbonitrile], on ChoKα protein, the Kd is under 0.05 µM. Besides, the IC50 in assay [1] (setting [2]) was under 0.1 µM.

Turning to `CN1CCCN(Cc2ccc(-c3ccc(CN4CCN(CCO)CC4)cc3)c(C#N)c2)CC1` [Example 6, 4′-((4-(2-hydroxyethyl)piperazin-1-yl)methyl)-4-((4-methyl-1,4-diazepan-1-yl)methyl)-[1,1′-biphenyl]-2-carbonitrile], at ChoKα protein, the Kd was under 0.1 µM. Besides, in assay [1] (setting [2]), the IC50 is under 0.2 µM. Take `CN1CCCN(Cc2ccc(-c3ccc(C(=O)N4CCCN(C)CC4)cc3-c3ccc([N+](=O)[O-])cc3)c(C#N)c2)CC1` [Example 73, 4-((4-methyl-1,4-diazepan-1-yl)methyl)-4′-(4-methyl-1,4-diazepane-1-carbonyl)-4″-nitro-[1,1′:2′,1″-terphenyl]-2-carbonitrile]: the IC50 in assay [1] (setting [2]) was under 0.5 µM. Turning to `CN1CCCN(Cc2ccc(-c3ccc(C(=O)N(C)CCO)cc3)c(C#N)c2)CC1` [Example 17, 2′-cyano-N-(2-hydroxyethyl)-N-methyl-4′-((4-methyl-1,4-diazepan-1-yl)methyl)-[1,1′-biphenyl]-4-carboxamide], the half-maximal inhibitory concentration (IC50) in assay [1] (setting [2]) was under 0.5 µM. Still for that read-out and setting: for `COCCN1CCN(C(=O)c2ccc(-c3ccc(CN4CCCN(C)CC4)cc3C#N)cc2)CC1` [Example 21, 4′-(4-(2-methoxyethyl)piperazine-1-carbonyl)-4-((4-methyl-1,4-diazepan-1-yl)methyl)-[1,1′-biphenyl]-2-carbonitrile] the value was under 0.5 µM. On to `CN1CCCN(Cc2ccc(Cn3cncn3)cc2)CC1` [Example 143, 1-(4-((1H-1,2,4-triazol-1-yl)methyl)benzyl)-4-methyl-1,4-diazepane], for which the IC50 in assay [1] (setting [3]) was under 50 µM. With `CC(=O)Nc1ccc(-c2ccc(CN3CCCN(C)CC3)cc2C#N)cn1` [Example 102, N-(5-(2-cyano-4-((4-methyl-1,4-diazepan-1-yl)methyl)phenyl)pyridin-2-yl)acetamide], the IC50 in assay [1] (setting [2]) is under 0.5 µM.

For `CN1CCCN(Cc2ccc(-c3ccc(CC(=O)O)cc3)cc2)CC1` [Example 160, 2-(4′-((4-methyl-1,4-diazepan-1-yl)methyl)-[1,1′-biphenyl]-4-yl)acetic acid], in assay [1] (setting [3]), the IC50 was under 50 µM. On the same count and under the same terms, in the case of `CN1CCCN(Cc2ccc(CN3CC[C@@H](O)C3)cc2)CC1` [Example 150, (R)-1-(4-((4-methyl-1,4-diazepan-1-yl)methyl)benzyl)pyrrolidin-3-ol] it was under 50 µM. `Cc1cc(CN2CCCN(C)CC2)ccc1-c1ccc(CN2CCCN(C)CC2)cc1` [Example 49, 4,4′-((2-methyl-[1,1′-biphenyl]-4,4′-diyl)bis(methylene))bis(1-methyl-1,4-diazepane)]: the half-inhibitory concentration (IC50) in assay [1] (setting [2]) is under 0.5 µM. Regarding `CN1CCC(N2CCN(Cc3ccc(CN4CCCN(C)CC4)cc3)CC2)CC1` [Example 149, 1-methyl-4-(4-((4-(1-methylpiperidin-4-yl)piperazin-1-yl)methyl)benzyl)-1,4-diazepane], the IC50 in assay [1] (setting [3]) is under 50 µM. Turning to `CN1CCCN(Cc2ccc(-c3ccc(CO)cc3)c(C#N)c2)CC1` [Example 108, 4′-(hydroxymethyl)-4-((4-methyl-1,4-diazepan-1-yl)methyl)-[1,1′-biphenyl]-2-carbonitrile], in assay [1] (setting [2]), the IC50 was under 0.5 µM. As for `COc1ccc(NCc2ccc(CN3CCCN(C)CC3)cc2)cc1` [Example 151, 4-methoxy-N-(4-((4-methyl-1,4-diazepan-1-yl)methyl)benzyl)aniline], the IC50 in assay [1] (setting [3]) is under 50 µM. As to `CN1CCCN(Cc2ccc(-c3cccc4ccccc34)c(C#N)c2)CC1` [Example 125, 5-((4-methyl-1,4-diazepan-1-yl)methyl)-2-(naphthalen-1-yl)benzonitrile], the IC50 in assay [1] (setting [2]) was under 50 µM. Still for that read-out and setting: in the case of `CN1CCCN(Cc2ccc(-c3ccc(CN4CCCN(C)CC4)cc3CNC=O)cc2)CC1` [Example 53, N-((4,4′-bis((4-methyl-1,4-diazepan-1-yl)methyl)-[1,1′-biphenyl]-2-yl)methyl)formamide] it was under 0.5 µM. Turning to `CN1CCCN(Cc2ccc(-c3cccc4ccccc34)cc2)CC1` [Example 136, 1-methyl-4-(4-(naphthalen-1-yl)benzyl)-1,4-diazepane], the IC50 in assay [1] (setting [3]) is under 50 µM. `CC(=O)NCCc1ccc(-c2ccc(CN3CCCN(C)CC3)cc2C#N)cc1` [Example 95, N-(2-(2′-cyano-4′-((4-methyl-1,4-diazepan-1-yl)methyl)-[1,1′-biphenyl]-4-yl)ethyl)acetamide]: in assay [1] (setting [2]), the IC50 is under 0.5 µM. Still for that read-out and setting: in the case of `CN1CCCN(Cc2ccc(-c3ccc(Oc4ccccc4N)cc3)c(C#N)c2)CC1` [Example 115, 4′-(2-aminophenoxy)-4-((4-methyl-1,4-diazepan-1-yl)methyl)-[1,1′-biphenyl]-2-carbonitrile] it was under 2 µM; in that of `CN1CCCN(Cc2ccc(-c3ccc(C(=O)N4CCCN(C)CC4)cc3N(C)C)c(C#N)c2)CC1` [Example 62, 2′-(dimethylamino)-4-((4-methyl-1,4-diazepan-1-yl)methyl)-4′-(4-methyl-1,4-diazepane-1-carbonyl)-[1,1′-biphenyl]-2-carbonitrile], under 0.5 µM. As for `CN1CCCN(Cc2ccc(-c3ccc(C(=O)N4CCCC4)cc3)c(C#N)c2)CC1` [Example 26, 4-((4-methyl-1,4-diazepan-1-yl)methyl)-4′-(pyrrolidine-1-carbonyl)-[1,1′-biphenyl]-2-carbonitrile], the IC50 in assay [1] is under 2 µM.
